According to patent US20130064955A1, “NATURAL SWEETENED COMPOSITIONS AND METHODS FOR PREPARING THE SAME” (priority 2011, published 2013):

Assays:
human sense of taste [1] = test: Determination of sweetness recognition threshold concentration by trained taste tester; assay type: in vivo; details: in water at room temperature; for minimal effective concentration: Homo sapiens, read-out: Sweetness recognition threshold Level
Procedure: The term “sweetness recognition threshold concentration,” as generally used herein, is the lowest known concentration of a sweet compound that is perceivable by the human sense of taste. The sweetness recognition threshold level is specific for a particular compound, and varies based on temperature, matrix, ingredients and/or flavor system. The sweetness recognition threshold concentrations measurements and 5% sucrose equivalence measurements described herein were determined in water at room temperature.
A sip (approximately 2-5 mL) of control sample, including but not limited to water, was tasted and swallowed by a trained taste tester. After allowing a 15-25 second interval to pass, a second sip of the control is tasted and swallowed. The taste properties of the control are determined and recorded by the trained taste tester. An unknown sample is then tasted and swallowed in the same manner, allowing a 15-25 second interval between the two sips. Preferably no more than ten additives are tested per day to avoid taste fatigue. Each sample was taken at least 1.5 hours following eating or drinking The sweetness recognition thresholds concentration of 21 steviol glycosides were determined in this manner, and are shown in Table 1.

human sense of taste [2] = test: Sugar-like taste quality enhancement of Stevia sweeteners by steviol glycoside additives, taste test by trained individual; assay type: in vivo; details: for Taste change of Stevia Sweetener REBA (303 ppm) with Steviol Glycoside Additive / Taste change of Stevia Sweetener JSS (380 ppm) with Steviol Glycoside Additive / Taste change of Stevia Sweetener REBD (303 ppm) with Steviol Glycoside Additive: additive at or below its sweetness recognition threshold concentration, 5% sucrose equivalence, water, room temperature; for Taste change of Stevia Sweetener REBA (303 ppm) with Steviol Glycoside Additive: 97% pure rebaudioside A 303 ppm; for Taste change of Stevia Sweetener REBD (303 ppm) with Steviol Glycoside Additive: rebaudioside D 303 ppm;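 for Taste change of Stevia Sweetener JSS (380 ppm) with Steviol Glycoside Additive: code −B means less bitterness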
Procedure: A steviol glycoside is added in an amount at or below sweetness recognition threshold concentration to a solution of water and a Stevia sweetener. The solution is maintained at room temperature. Each sample is taste tested by a trained individual, as described in Example 1, in duplicate. Preferably no more than ten steviol glycosides are tested per day to avoid taste fatigue. Each sample was taken at least 1.5 hours following eating or drinking
The Stevia sweeteners used in this study were 97% pure rebaudioside A, JSS, and rebaudioside D.
The steviol glycosides were used in at or below sweetness recognition threshold concentrations. […]

Row | Compound | minimal effective concentration (human sense of taste [1]) [µg/mL] | sugar-like taste quality (human sense of taste [2]; additive at 250 ppm, rebaudioside A) | Taste change of Stevia Sweetener REBA (303 ppm) with Steviol Glycoside Additive (human sense of taste [2]) | Taste change of Stevia Sweetener JSS (380 ppm) with Steviol Glycoside Additive (human sense of taste [2]) | Taste change of Stevia Sweetener REBD (303 ppm) with Steviol Glycoside Additive (human sense of taste [2]) | sugar-like taste quality enhancement effect (human sense of taste [2]; mostly in 5% SE rebaudioside A, compared with compound 1) | Sweetness recognition threshold Level (human sense of taste [1]) [ppm] | Sweetness recognition threshold Level (human sense of taste [1]; listed as rebaudioside D) | bitterness (human sense of taste [2]; additive at 85 ppm, 5% SE JSS)
1 | C[C@@]12CCC[C@@](C)(C(=O)OC3OC(CO)C(O)C(O)C3O)[C@H]1CC[C@]13C=C(CO)[C@](OC4OC(CO)C(O)C(OC5OC(CO)C(O)C(O)C5O)C4OC4OC(CO)C(O)C(O)C4O)(CC[C@H]12)C3 (stereo partly drawn) [Compound 5] | 250 | improve the sugar-like taste quality of rebaudioside A | +, −B, W | N (N: no difference in presence or absence of steviol glycoside additive;) | N (N: no difference in presence or absence of steviol glycoside additive;) | similar, but smaller positive sugar-like taste quality enhancement effect |  |  | 
2 | C=C1C[C@@]23CC[C@H]4[C@@](C)(CCC[C@@]4(C)C(=O)O[C@@H]4O[C@H](CO)[C@@H](O)[C@H](O)[C@H]4O[C@@H]4O[C@H](CO)[C@@H](O)[C@H](O)[C@H]4O)[C@@H]2CC[C@]1(O[C@@H]1O[C@H](CO)[C@@H](O)[C@H](O[C@@H]2O[C@H](CO)[C@@H](O)[C@H](O)[C@H]2O)[C@H]1O[C@@H]1O[C@H](CO)[C@@H](O)[C@H](O)[C@H]1O)C3 [Rebaudioside D, rebaudioside D] |  |  | N (N: no difference in presence or absence of steviol glycoside additive;) | N (N: no difference in presence or absence of steviol glycoside additive;) |  |  | 25 | about 25 ppm | 
3 | C=C1C[C@@]23CC[C@H]4[C@@](C)(CCC[C@@]4(C)C(=O)OC4OC(C(=O)O)C(O)C(O)C4O)[C@@H]2CC[C@]1(O)C3 (stereo partly drawn) [Steviol glucuronide, steviol glucoronide] | 85 |  | N (N: no difference in presence or absence of steviol glycoside additive;) | −B | N (N: no difference in presence or absence of steviol glycoside additive;) |  |  |  | less bitterness
